Measured values taken from the NIST ThermoML archive (doi:10.1016/j.fluid.2014.11.020).
Numbers after ± are expanded uncertainties.

Assay: activity coefficient (dimensionless); of the first substance listed, at infinite dilution; xn = mol fraction of the nth substance listed
Conditions: Liquid, Chromatography, x1 = 0

Compound | activity coefficient (323.15 K) | activity coefficient (333.15 K) | activity coefficient (343.15 K)
CCO [ethanol] + CCCOC[n+]1ccn(C)c1.O=S(=O)([N-]S(=O)(=O)C(F)(F)F)C(F)(F)F | 1.51 ± 0.1 | 1.36 ± 0.09 | 1.26 ± 0.08
CCCCO [butan-1-ol] + Cn1cc[n+](COCCCOC[n+]2ccn(C)c2)c1.N#C[N-]C#N.N#C[N-]C#N | 2.21 ± 0.15 | 1.9 ± 0.13 | 1.79 ± 0.12
CCc1ccccc1 [ethylbenzene] + CCCOC[n+]1ccn(C)c1.N#C[N-]C#N | 6 ± 0.41 | 6.06 ± 0.41 | 6.12 ± 0.42
ClC(Cl)Cl [trichloromethane] + CCCOC[n+]1ccc(N(C)C)cc1.O=S(=O)([N-]S(=O)(=O)C(F)(F)F)C(F)(F)F | 0.71 ± 0.05 | 0.75 ± 0.05 | 0.79 ± 0.05
C1COCCO1 [1,4-dioxane] + N#C[N-]C#N.N#C[N-]C#N.c1ccc(Cn2cc[n+](COCCCOC[n+]3ccn(Cc4ccccc4)c3)c2)cc1 | 1.32 ± 0.09 | 1.32 ± 0.09 | 1.35 ± 0.09
C1COCCO1 [1,4-dioxane] + CCCOC[n+]1ccn(Cc2ccccc2)c1.O=S(=O)([N-]S(=O)(=O)C(F)(F)F)C(F)(F)F | 0.4 ± 0.03 | 0.36 ± 0.03 | 0.35 ± 0.03
CC(C)O [propan-2-ol] + N#C[N-]C#N.N#C[N-]C#N.c1ccc(Cn2cc[n+](COCCCOC[n+]3ccn(Cc4ccccc4)c3)c2)cc1 | 1.57 ± 0.1 | 1.45 ± 0.1 | 1.39 ± 0.09
C#CCCCCC [1-heptyne] + CCCCCCCCn1cc[n+](COCCC)c1C.O=S(=O)([N-]S(=O)(=O)C(F)(F)F)C(F)(F)F | 1.68 ± 0.11 | 1.64 ± 0.11 | 1.62 ± 0.11
CC(C)CO [2-methyl-1-propanol] + N#C[N-]C#N.N#C[N-]C#N.c1ccc(Cn2cc[n+](COCCCOC[n+]3ccn(Cc4ccccc4)c3)c2)cc1 | 1.79 ± 0.12 | 1.67 ± 0.11 | 1.61 ± 0.11
CC#N [acetonitrile] + CCCOC[n+]1ccn(Cc2ccccc2)c1.O=S(=O)([N-]S(=O)(=O)C(F)(F)F)C(F)(F)F | 0.39 ± 0.03 | 0.34 ± 0.03 | 0.34 ± 0.03
CCCCCCCCCC [decane] + CCCCCCCCn1cc[n+](COCCCOC[n+]2ccn(CCCCCCCC)c2C)c1C.O=S(=O)([N-]S(=O)(=O)C(F)(F)F)C(F)(F)F.O=S(=O)([N-]S(=O)(=O)C(F)(F)F)C(F)(F)F | 9.63 ± 0.66 | 8.73 ± 0.6 | 8.35 ± 0.57
Cc1ccccc1 [toluene] + CCCCCCCCn1cc[n+](COCCC)c1C.O=S(=O)([N-]S(=O)(=O)C(F)(F)F)C(F)(F)F | 0.76 ± 0.05 | 0.76 ± 0.05 | 0.77 ± 0.05
CCCCCCC [heptane] + CCCCCCCCn1cc[n+](COCCCOC[n+]2ccn(CCCCCCCC)c2C)c1C.N#C[N-]C#N.N#C[N-]C#N | 11.6 ± 0.79 | 8.65 ± 0.59 | 8.8 ± 0.6
CCC(C)=O [butanone] + CCCOC[n+]1ccn(Cc2ccccc2)c1.O=S(=O)([N-]S(=O)(=O)C(F)(F)F)C(F)(F)F | 0.32 ± 0.03 | 0.26 ± 0.03 | 0.22 ± 0.03
c1ccncc1 [pyridine] + CCCOC[n+]1ccn(Cc2ccccc2)c1.O=S(=O)([N-]S(=O)(=O)C(F)(F)F)C(F)(F)F | – | 0.28 ± 0.03 | 0.29 ± 0.03
CCCCCCCCCCCC [dodecane] + CCCOC[n+]1ccc(N(C)C)cc1.O=S(=O)([N-]S(=O)(=O)C(F)(F)F)C(F)(F)F | 73.5 ± 5 | 69.4 ± 4.8 | 61.7 ± 4.2
CCCO [propan-1-ol] + N#C[N-]C#N.N#C[N-]C#N.c1ccc(Cn2cc[n+](COCCCOC[n+]3ccn(Cc4ccccc4)c3)c2)cc1 | 1.24 ± 0.08 | 1.2 ± 0.08 | 1.14 ± 0.07
CCCCCCCCCCCC [dodecane] + N#C[N-]C#N.N#C[N-]C#N.c1ccc(Cn2cc[n+](COCCCOC[n+]3ccn(Cc4ccccc4)c3)c2)cc1 | 631 ± 43 | 634 ± 44 | 600 ± 41
CC1CCCC1 [methylcyclopentane] + CCCOC[n+]1ccn(C)c1.N#C[N-]C#N | 27.7 ± 1.9 | 24.4 ± 1.7 | –
CC1CCCCC1 [methylcyclohexane] + CCCCCCCCn1cc[n+](COCCC)c1C.O=S(=O)([N-]S(=O)(=O)C(F)(F)F)C(F)(F)F | 3.09 ± 0.21 | 2.91 ± 0.2 | 2.8 ± 0.19
C1CCCCC1 [cyclohexane] + CCCOC[n+]1ccn(Cc2ccccc2)c1.N#C[N-]C#N | 13.1 ± 0.9 | 12.3 ± 0.84 | 11.5 ± 0.79
CCCCCCCCCCC [undecane] + CCCOC[n+]1ccn(Cc2ccccc2)c1.F[B-](F)(F)F | 352 ± 24 | 301 ± 21 | 286 ± 20

Compound | activity coefficient (323.15 K) | activity coefficient (333.15 K) | activity coefficient (343.15 K)
ClC(Cl)(Cl)Cl [tetrachloromethane] + CCCCCCCCn1cc[n+](COCCC)c1C.O=S(=O)([N-]S(=O)(=O)C(F)(F)F)C(F)(F)F | 1.21 ± 0.08 | 1.19 ± 0.08 | 1.24 ± 0.08
CCCCCC [hexane] + CCCCCCCCn1cc[n+](COCCC)c1C.O=S(=O)([N-]S(=O)(=O)C(F)(F)F)C(F)(F)F | 3.82 ± 0.26 | 3.74 ± 0.25 | 3.12 ± 0.21
C#CCCCC [1-hexyne] + CCCOC[n+]1ccn(C)c1.F[B-](F)(F)F | 10.3 ± 0.7 | 10.1 ± 0.69 | 9.44 ± 0.64
CCC(=O)CC [pentan-3-one] + CCCOC[n+]1ccn(C)c1.N#C[N-]C#N | 2.14 ± 0.15 | 2.19 ± 0.15 | 2.29 ± 0.16
CO [methanol] + CCCCCCCCn1cc[n+](COCCCOC[n+]2ccn(CCCCCCCC)c2C)c1C.N#C[N-]C#N.N#C[N-]C#N | 0.2 ± 0.03 | 0.2 ± 0.03 | 0.21 ± 0.03
ClC(Cl)Cl [trichloromethane] + CCCOC[n+]1ccn(Cc2ccccc2)c1.N#C[N-]C#N | 0.62 ± 0.04 | 0.65 ± 0.04 | 0.69 ± 0.05
Cc1ccccc1C [1,2-dimethylbenzene] + CN(C)c1cc[n+](COCCCOC[n+]2ccc(N(C)C)cc2)cc1.O=S(=O)([N-]S(=O)(=O)C(F)(F)F)C(F)(F)F.O=S(=O)([N-]S(=O)(=O)C(F)(F)F)C(F)(F)F | 1.18 ± 0.08 | 1.2 ± 0.08 | 1.22 ± 0.08
CC1CCCC1 [methylcyclopentane] + CCCCCCCCn1cc[n+](COCCC)c1C.N#C[N-]C#N | 4.37 ± 0.3 | 4.16 ± 0.28 | 4.16 ± 0.28
C1CCCCCC1 [cycloheptane] + CCCCCCCCn1cc[n+](COCCCOC[n+]2ccn(CCCCCCCC)c2C)c1C.O=S(=O)([N-]S(=O)(=O)C(F)(F)F)C(F)(F)F.O=S(=O)([N-]S(=O)(=O)C(F)(F)F)C(F)(F)F | 5.84 ± 0.4 | 7.77 ± 0.53 | 10.2 ± 0.7
CC1CCCCC1 [methylcyclohexane] + CCCOC[n+]1ccn(C)c1.N#C[N-]C#N | 44.3 ± 3 | 39.6 ± 2.7 | 35.6 ± 2.4
CCCCCCCCCCC [undecane] + N#C[N-]C#N.N#C[N-]C#N.c1ccc(Cn2cc[n+](COCCCOC[n+]3ccn(Cc4ccccc4)c3)c2)cc1 | 554 ± 38 | 508 ± 35 | 457 ± 31
ClC(Cl)(Cl)Cl [tetrachloromethane] + CCCOC[n+]1ccn(Cc2ccccc2)c1.N#C[N-]C#N | 2.5 ± 0.17 | 2.58 ± 0.18 | 2.67 ± 0.18
Cc1ccccc1C [1,2-dimethylbenzene] + Cn1cc[n+](COCCCOC[n+]2ccn(C)c2)c1.N#C[N-]C#N.N#C[N-]C#N | 8.42 ± 0.57 | 8.26 ± 0.56 | 8.25 ± 0.56
CCCCCCCCCC [decane] + CN(C)c1cc[n+](COCCCOC[n+]2ccc(N(C)C)cc2)cc1.O=S(=O)([N-]S(=O)(=O)C(F)(F)F)C(F)(F)F.O=S(=O)([N-]S(=O)(=O)C(F)(F)F)C(F)(F)F | 79.5 ± 5.5 | 71 ± 4.9 | 63 ± 4.3
CCCCCCCC [octane] + CCCOC[n+]1ccn(Cc2ccccc2)c1.O=S(=O)([N-]S(=O)(=O)C(F)(F)F)C(F)(F)F | 16.1 ± 1.1 | 12.9 ± 0.88 | 12.5 ± 0.85
CC1CCCCC1 [methylcyclohexane] + CN(C)c1cc[n+](COCCCOC[n+]2ccc(N(C)C)cc2)cc1.O=S(=O)([N-]S(=O)(=O)C(F)(F)F)C(F)(F)F.O=S(=O)([N-]S(=O)(=O)C(F)(F)F)C(F)(F)F | 13.9 ± 0.95 | 12.7 ± 0.87 | 11.8 ± 0.8
CCCCCCCCC [nonane] + CCCCCCCCn1cc[n+](COCCCOC[n+]2ccn(CCCCCCCC)c2C)c1C.N#C[N-]C#N.N#C[N-]C#N | 17.1 ± 1.2 | 15.8 ± 1.1 | 14.3 ± 0.98
CCCCCCCCCCC [undecane] + CCCOC[n+]1ccn(C)c1.F[B-](F)(F)F | 911 ± 63 | 883 ± 61 | 780 ± 54
Cc1ccc(C)cc1 [1,4-dimethylbenzene] + CCCOC[n+]1ccn(Cc2ccccc2)c1.F[B-](F)(F)F | 5.12 ± 0.35 | 4.85 ± 0.33 | 4.88 ± 0.33
ClC(Cl)Cl [trichloromethane] + CCCOC[n+]1ccn(Cc2ccccc2)c1.F[B-](F)(F)F | 1.16 ± 0.07 | 1.15 ± 0.07 | 1.2 ± 0.08
CCc1ccccc1 [ethylbenzene] + CCCOC[n+]1ccn(Cc2ccccc2)c1.N#C[N-]C#N | 3.41 ± 0.23 | 3.36 ± 0.23 | 3.32 ± 0.23
CCCO [propan-1-ol] + CCCCCCCCn1cc[n+](COCCCOC[n+]2ccn(CCCCCCCC)c2C)c1C.O=S(=O)([N-]S(=O)(=O)C(F)(F)F)C(F)(F)F.O=S(=O)([N-]S(=O)(=O)C(F)(F)F)C(F)(F)F | 0.72 ± 0.05 | 0.65 ± 0.04 | 0.77 ± 0.05
